The numbers were not newly measured in patent US8951728B2, “Template directed split and mix synthesis of small molecule libraries” (ChemGene Holding ApS, priority 2004, dated 2015), which cites them from elsewhere.

The data set has as its target alphaV/beta3 integrin receptor (Homo sapiens, UniProt P05106+P06756).

alphaV/beta3 integrin receptor, sequence (P06756 31-889 limits assumed): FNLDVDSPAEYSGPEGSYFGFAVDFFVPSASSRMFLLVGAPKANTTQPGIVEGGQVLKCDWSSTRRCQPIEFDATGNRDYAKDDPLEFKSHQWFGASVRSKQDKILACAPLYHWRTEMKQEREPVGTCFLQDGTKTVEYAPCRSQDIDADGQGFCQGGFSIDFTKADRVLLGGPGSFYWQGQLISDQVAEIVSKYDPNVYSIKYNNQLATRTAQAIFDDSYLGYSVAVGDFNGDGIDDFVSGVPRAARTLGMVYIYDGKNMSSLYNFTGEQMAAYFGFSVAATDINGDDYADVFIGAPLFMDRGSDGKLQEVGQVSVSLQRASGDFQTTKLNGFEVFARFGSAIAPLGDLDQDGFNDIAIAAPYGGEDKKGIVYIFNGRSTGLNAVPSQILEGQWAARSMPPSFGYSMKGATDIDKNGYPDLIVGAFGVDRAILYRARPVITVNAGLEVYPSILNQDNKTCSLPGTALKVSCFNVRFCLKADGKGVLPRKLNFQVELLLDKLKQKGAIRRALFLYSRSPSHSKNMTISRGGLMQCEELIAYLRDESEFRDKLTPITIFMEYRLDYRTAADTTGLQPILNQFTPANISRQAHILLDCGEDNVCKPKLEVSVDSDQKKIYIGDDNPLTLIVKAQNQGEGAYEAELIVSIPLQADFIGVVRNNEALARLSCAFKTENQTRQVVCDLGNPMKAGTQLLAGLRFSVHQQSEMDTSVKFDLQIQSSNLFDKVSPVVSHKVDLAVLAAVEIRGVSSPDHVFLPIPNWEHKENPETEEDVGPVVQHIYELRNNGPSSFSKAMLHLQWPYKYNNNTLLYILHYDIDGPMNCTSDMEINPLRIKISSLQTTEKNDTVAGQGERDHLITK
alphaV/beta3 integrin receptor, sequence (P06756 891-1048 limits assumed): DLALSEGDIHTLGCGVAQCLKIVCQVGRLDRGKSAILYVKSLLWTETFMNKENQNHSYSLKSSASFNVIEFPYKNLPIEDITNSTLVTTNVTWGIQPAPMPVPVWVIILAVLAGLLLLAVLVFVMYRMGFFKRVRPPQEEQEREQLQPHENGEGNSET
alphaV/beta3 integrin receptor, sequence (P05106 27-788): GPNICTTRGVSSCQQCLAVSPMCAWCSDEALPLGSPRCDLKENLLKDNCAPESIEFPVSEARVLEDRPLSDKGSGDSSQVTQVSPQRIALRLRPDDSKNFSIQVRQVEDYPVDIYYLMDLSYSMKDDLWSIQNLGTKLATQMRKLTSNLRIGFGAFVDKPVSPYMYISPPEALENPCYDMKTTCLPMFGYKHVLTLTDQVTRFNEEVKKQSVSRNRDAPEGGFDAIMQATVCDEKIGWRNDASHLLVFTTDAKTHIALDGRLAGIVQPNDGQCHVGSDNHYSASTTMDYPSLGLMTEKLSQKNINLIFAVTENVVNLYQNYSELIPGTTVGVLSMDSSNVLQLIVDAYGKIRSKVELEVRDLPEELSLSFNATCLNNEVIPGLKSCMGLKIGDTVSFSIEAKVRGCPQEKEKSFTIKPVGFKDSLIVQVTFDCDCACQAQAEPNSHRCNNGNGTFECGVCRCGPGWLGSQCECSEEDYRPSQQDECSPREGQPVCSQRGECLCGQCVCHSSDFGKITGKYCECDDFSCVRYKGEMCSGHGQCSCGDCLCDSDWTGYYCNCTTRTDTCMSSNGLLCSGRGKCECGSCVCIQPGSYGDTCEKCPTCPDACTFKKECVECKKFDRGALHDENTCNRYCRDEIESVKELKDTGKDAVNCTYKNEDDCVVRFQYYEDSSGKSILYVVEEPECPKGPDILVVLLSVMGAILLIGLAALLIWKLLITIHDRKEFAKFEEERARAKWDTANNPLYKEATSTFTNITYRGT

As a reminder, the Kd is the concentration at which binding is half-saturated. Take `O=C(O)CC(NC(=O)CNC(=O)CCCc1ccc2c(n1)NCCC2)C(=O)O` (centres unmarked) [Feuston 5]: the “affinity compared to the RGD-tripeptide” value is given as “ten-fold increased affinity”. For the setting “Feuston et al., J Med. Chem. 2002”, the Kd was 111 nM.
